Source: ChEMBL document CHEMBL3751680 (Bioorg Med Chem, 2016)
Activity calls are given as the source filed them. The rule behind the calls is not given here.

Tests used:
[1] = Binding affinity to synthetic ceramic hydroxyapatite type 1 assessed as reduction in bound compound level at 50 uM after 16 hrs by NMR spectroscopic analysis relative to control; parameters: scale not given: the % may be the effect or the level left
[2] = Binding affinity to synthetic ceramic hydroxyapatite type 1 assessed as reduction in bound compound level at 50 uM after 1 hr by NMR spectroscopic analysis relative to alendronate; parameters: scale not given: the % may be the effect or the level left
[3] = Binding affinity to synthetic ceramic hydroxyapatite type 1 assessed as reduction in bound compound level at 50 uM after 16 hrs by NMR spectroscopic analysis relative to alendronate; parameters: scale not given: the % may be the effect or the level left
[4] = species on record: Canis lupus familiaris; assay: Binding affinity to hound bone powder assessed as reduction in bound compound level at 50 uM after 1 hr by NMR spectroscopic analysis relative to control; parameters: scale not given: the % may be the effect or the level left
[5] = species on record: Canis lupus familiaris; assay: Binding affinity to hound bone powder assessed as reduction in bound compound level at 50 uM after 16 hrs by NMR spectroscopic analysis relative to control; parameters: scale not given: the % may be the effect or the level left
[6] = species on record: Canis lupus familiaris; assay: Binding affinity to hound bone powder assessed as reduction in bound compound level at 50 uM after 1 hr by NMR spectroscopic analysis relative to alendronate; parameters: scale not given: the % may be the effect or the level left
[7] = species on record: Canis lupus familiaris; assay: Binding affinity to hound bone powder assessed as reduction in bound compound level at 50 uM after 16 hrs by NMR spectroscopic analysis relative to alendronate; parameters: scale not given: the % may be the effect or the level left
[8] = biological target: T1, Estrogen receptor (Homo sapiens, UniProt P03372); assay: Binding affinity to ERalpha (unknown origin)
T1 sequence (P03372 whole entry): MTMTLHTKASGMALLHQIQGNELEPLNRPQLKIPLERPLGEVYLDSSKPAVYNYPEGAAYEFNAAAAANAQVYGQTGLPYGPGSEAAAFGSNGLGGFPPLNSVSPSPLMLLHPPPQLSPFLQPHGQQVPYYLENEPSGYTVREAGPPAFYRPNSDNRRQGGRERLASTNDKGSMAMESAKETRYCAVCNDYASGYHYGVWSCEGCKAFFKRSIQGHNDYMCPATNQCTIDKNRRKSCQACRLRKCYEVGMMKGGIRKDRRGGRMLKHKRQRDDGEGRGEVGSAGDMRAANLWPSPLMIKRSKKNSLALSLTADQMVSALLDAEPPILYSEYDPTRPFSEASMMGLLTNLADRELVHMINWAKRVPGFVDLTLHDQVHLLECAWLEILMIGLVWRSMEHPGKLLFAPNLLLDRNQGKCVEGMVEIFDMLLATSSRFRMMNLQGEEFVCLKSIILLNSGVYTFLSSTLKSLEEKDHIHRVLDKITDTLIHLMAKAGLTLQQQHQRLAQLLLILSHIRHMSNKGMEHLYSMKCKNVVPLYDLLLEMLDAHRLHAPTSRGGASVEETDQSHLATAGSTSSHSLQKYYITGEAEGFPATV

[9] = biological target: Estrogen receptor beta (Homo sapiens, UniProt Q92731); assay: Binding affinity to ERbeta (unknown origin)
Chain of Estrogen receptor beta (Q92731 whole entry): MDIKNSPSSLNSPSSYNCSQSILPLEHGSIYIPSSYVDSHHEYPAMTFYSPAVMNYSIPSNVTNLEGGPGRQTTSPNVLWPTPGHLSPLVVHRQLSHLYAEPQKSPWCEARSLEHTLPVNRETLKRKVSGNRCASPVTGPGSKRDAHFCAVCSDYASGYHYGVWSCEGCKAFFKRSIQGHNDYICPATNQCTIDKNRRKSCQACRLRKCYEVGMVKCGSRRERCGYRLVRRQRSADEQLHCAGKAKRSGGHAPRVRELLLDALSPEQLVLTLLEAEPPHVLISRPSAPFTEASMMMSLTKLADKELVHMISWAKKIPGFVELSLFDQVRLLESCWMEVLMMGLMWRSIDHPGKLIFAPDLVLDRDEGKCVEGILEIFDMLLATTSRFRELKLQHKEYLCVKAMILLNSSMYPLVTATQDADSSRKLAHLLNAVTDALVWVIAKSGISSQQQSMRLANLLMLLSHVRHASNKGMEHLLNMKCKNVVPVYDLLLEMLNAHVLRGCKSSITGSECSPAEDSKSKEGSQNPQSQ

[10] = Binding affinity to synthetic ceramic hydroxyapatite type 1 assessed as reduction in bound compound level at 50 uM after 1 hr by NMR spectroscopic analysis relative to control; parameters: scale not given: the % may be the effect or the level left
[11] = biological target: Collagen alpha-1(I) chain (Canis lupus familiaris) (UniProt Q9XSJ7); assay: Binding affinity to hound collagen 1a1 (unknown origin) at 50 uM after 1 8 hrs by 1H NMR spectroscopic analysis
Chain of Collagen alpha-1(I) chain (Canis lupus familiaris) (Q9XSJ7 whole entry): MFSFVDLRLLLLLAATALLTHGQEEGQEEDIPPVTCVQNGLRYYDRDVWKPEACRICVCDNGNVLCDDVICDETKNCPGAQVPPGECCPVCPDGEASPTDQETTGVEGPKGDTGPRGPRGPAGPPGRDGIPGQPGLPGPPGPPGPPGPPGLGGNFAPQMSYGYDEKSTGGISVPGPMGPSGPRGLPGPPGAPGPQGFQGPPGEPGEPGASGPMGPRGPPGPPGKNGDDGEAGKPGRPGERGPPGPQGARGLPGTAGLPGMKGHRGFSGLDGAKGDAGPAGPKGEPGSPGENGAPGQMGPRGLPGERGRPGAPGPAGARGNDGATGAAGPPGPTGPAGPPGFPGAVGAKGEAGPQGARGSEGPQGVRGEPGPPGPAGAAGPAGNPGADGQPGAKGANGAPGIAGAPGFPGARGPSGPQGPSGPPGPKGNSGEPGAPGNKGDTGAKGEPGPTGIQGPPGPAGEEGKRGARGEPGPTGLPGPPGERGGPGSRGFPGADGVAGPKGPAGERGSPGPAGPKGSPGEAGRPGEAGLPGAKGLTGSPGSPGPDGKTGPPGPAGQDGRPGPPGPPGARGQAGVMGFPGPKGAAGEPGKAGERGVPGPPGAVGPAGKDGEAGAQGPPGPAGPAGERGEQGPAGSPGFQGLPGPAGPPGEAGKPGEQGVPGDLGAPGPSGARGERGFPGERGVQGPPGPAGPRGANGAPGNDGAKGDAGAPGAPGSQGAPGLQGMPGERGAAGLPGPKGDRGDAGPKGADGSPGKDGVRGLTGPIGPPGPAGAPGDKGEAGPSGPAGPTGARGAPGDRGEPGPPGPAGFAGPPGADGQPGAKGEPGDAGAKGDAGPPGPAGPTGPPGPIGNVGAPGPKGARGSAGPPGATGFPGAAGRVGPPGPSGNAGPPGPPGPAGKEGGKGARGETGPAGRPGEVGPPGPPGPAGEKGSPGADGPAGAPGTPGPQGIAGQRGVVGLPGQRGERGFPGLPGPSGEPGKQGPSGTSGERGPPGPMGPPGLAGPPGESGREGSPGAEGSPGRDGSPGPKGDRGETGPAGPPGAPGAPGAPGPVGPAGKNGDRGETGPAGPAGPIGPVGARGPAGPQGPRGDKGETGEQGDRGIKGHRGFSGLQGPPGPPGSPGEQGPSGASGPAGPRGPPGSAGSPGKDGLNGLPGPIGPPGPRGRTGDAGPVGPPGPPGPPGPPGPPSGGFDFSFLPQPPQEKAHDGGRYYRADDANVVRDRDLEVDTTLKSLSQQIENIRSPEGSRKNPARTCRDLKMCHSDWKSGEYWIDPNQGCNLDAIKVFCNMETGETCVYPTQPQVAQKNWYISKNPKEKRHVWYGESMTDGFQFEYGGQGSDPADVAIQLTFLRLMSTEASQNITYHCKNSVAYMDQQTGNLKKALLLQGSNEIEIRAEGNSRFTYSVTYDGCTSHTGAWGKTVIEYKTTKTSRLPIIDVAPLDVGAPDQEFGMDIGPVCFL

[12] = species on record: Canis lupus familiaris; assay: […] hound bone beams assessed as energy to fracture at 2 uM by 4 point bending analysis relative to control
[13] = species on record: Canis lupus familiaris; assay: Binding affinity to hound bone powder at 50 uM after 1 to 8 hrs by 1H NMR spectroscopic analysis
[14] = species on record: Canis lupus familiaris; assay: Binding affinity to hound bone powder assessed as change in vibration bands at 20 to 50 uM after 1 hr by FTIR analysis

With `O=C(c1ccc(OCCN2CCCCC2)cc1)c1c(-c2ccccc2)sc2ccccc12` the Activity [1] was -237%, the Activity [2] was -422% and the Activity [3] was -238%. It also gave an Activity [4] of -132%, an Activity [5] of 89% and an Activity [6] of -132%. For the same molecule, the Activity [7] was 93.1%, the Ki [8] was over 10 µM and the Ki [9] was over 10 µM. It also gave an Activity [10] of -422%.

In the case of `COc1ccc(Nc2nc(NCc3ccco3)nc(N/N=C(\C)c3ccc(NC(C)=O)cc3)n2)cc1`, the Activity [1] is reported as 4.1%, the Activity [2] is reported as 3.9% and the Activity [3] is reported as 4.1%. It also gave an Activity [4] of 0.3%, an Activity [5] of -0.5% and an Activity [6] of 0.3%. It also gave an Activity [7] of -0.5% and an Activity [10] of 3.9%.

For `NCCCC(O)(P(=O)(O)O)P(=O)(O)O`, the Activity [1] was 99.7%, the Activity [4] was 41.1% and the Activity [5] was 95.6%. For the same molecule, the Activity [10] was 100%.

`C[C@]12CC[C@@H]3c4ccc(O)cc4CC[C@H]3[C@@H]1CC[C@@H]2O` gave an Activity [1] of 73%, an Activity [2] of 57.1% and an Activity [3] of 73.2%. It also gave an Activity [4] of 5.3%, an Activity [5] of 73.9% and an Activity [6] of 5.3%. The Activity [7] was 77.4% and the Activity [10] was 57.1%.

Work on `O=C(c1ccc(O)cc1)c1c(-c2ccc(O)cc2)sc2cc(O)ccc12` yielded an Activity [1] of 15.1%, an Activity [2] of 13.3% and an Activity [3] of 15.1%. The Activity [4] was 26.4%, the Activity [5] was 34.1% and the Activity [6] was 26.4%. For the same molecule, the Activity [7] was 35.6%, the Activity [11] was “Active” and the Activity [12] was -36%. For the same molecule, the Activity [13] was “Active” and the Activity [10] was 13.3%.

Work on `O=C(c1ccc(OCCN2CCCCC2)cc1)c1c(-c2ccc(O)cc2)sc2cc(O)ccc12` yielded an Activity [1] of -206%, an Activity [2] of -232% and an Activity [3] of -207%. It also gave an Activity [4] of 54.2%, an Activity [5] of 99% and an Activity [6] of 54.2%. The Activity [7] was 104%, the Activity [11] was “Active” and the Activity [14] was “Active”. The Activity [12] was 16%, the Activity [13] was “Active” and the Activity [10] was -232%.

Molecule `COc1ccc2c(C(=O)c3ccc(OCCN4CCCCC4)cc3)c(-c3ccc(O)cc3)sc2c1` has an Activity [1] of -286%, an Activity [2] of -57.9% and an Activity [3] of -287%. The Activity [4] was 21%, the Activity [5] was 73.9% and the Activity [6] was 21%. For the same molecule, the Activity [7] was 77.4%, the Activity [11] was “Active” and the Activity [12] was 25%. The Activity [13] was “Active” and the Activity [10] was -57.9%.

Work on `Oc1ccc(-c2cc3ccc(O)cc3s2)cc1` [RALOXIFENE CORE] yielded an Activity [1] of 11.7%, an Activity [2] of 22.3% and an Activity [3] of 11.7%. It also gave an Activity [4] of 42.8%, an Activity [5] of 46.4% and an Activity [6] of 42.8%. The Activity [7] was 48.6%, the Ki [9] was 0.0023 µM and the Activity [12] was -75%. The Activity [10] was 22.3%.
